Counter-ions that a name gives are not always drawn. Like-named read-outs stand apart in the source and are kept apart here.
Key:
[1] = tested on: mouse ear edema induced by topical application of arachidonic acid; test: Arachidonic Acid-Induced Ear Edema (AAEE); assay type: in vivo, Female Swiss Webster mice; conditions: for AAEE, ear edema: 1 mg (1.0 mg/ear), arachidonic acid 4 mg/ear
Description: The purpose of this assay was to determine the ability of a topically-applied compound to prevent mouse ear edema induced by topical application of arachidonic acid. Female Swiss Webster mice topically received vehicle or test compound (1.0 mg/ear) on both ears (10 μl on outer and inner ears). After 30 minutes, the right ear of all groups received arachidonic acid (4 mg/ear) and the left ear received vehicle alone. After an additional 1 hour, the mice were sacrificed and an ear punch (4 mm) was taken from each ear. The difference in right and left ear punch weights for each animal was determined to assess activity. […] See Young, J. M. et al., Invest. Dermatol., 80, (1983), pp 48-52.

[2] = tested on: naja naja (snake venom) phospholipase A2 -induced paw edema; test: Phospholipase A2-induced Paw Edema (PIPE); assay type: in vivo, male Wistar rats; conditions: 0.1 M; injected with PLA2 (3 units/paw) in subplantar region of rat left hindpaw; two hours
Description: The ability of compounds to prevent naja naja (snake venom) phospholipase A2 -induced paw edema in male Wistar rats (100-125 g) was measured. PLA2 (3 units/paw) alone or with 0.1M of the test compound was injected in the subplantar region of the rat left hindpaw. Immediately subsequent to the injection and at two hours post administration the paw was immersed in a mercury bath, and paw displacement was measured on a recorder via a transducer. […] See Giessler, A. J. et al., Agents and Actions, Vol. 10, Trends in Inflammation Research (1981), p. 195.

[3] = biological target: porcine pancreatic PLA2 (Sus scrofa, UniProt P00592); test: biochemical
Description: The ability of a compound to modulate PLA2 activity (cleavage of ^14 C-dipalmitoyl phosphotidylcholine at the 2-position to ^14 C-palmitic acid) was quantitated in this assay. The reaction mixture contained Tris buffer (25 mM), pH 8.0, calcium chloride (2.0 mM), bovine serum albumin (0.5 mg), dipalmitoyl phosphotidylcholine (8×10^-5M), (^14 C-palmitoyl)dipalmitoyl phosphotidylcholine (6×10^3cpm), porcine pancreatic PLA2 (3.2 units) and the test compound. The reaction was run at 37° C. in a shaking incubator. The reaction was quenched and an internal standard was added in order to determine sample recovery. The samples were loaded onto C18 columns, eluted with ethanol, and the radioactivity was then measured. […] See Feyen, J. H. M., et al., Journal of Chromatography 259 (1983), pp. 338-340.

[4] = tested on: ear edema induced by topical application of TPA (phorbol 12-myristate acetate); test: TPA-Induced Ear Edema (TPAEE); assay type: in vivo, Female Swiss Webster mice; conditions: for TPAEE, ear edema: 10 μg (10 μg/ear), TPA 10 μg/ear, five hours
Description: The purpose of this assay was to determine the ability of a topically-applied compound to prevent ear edema induced by topical application of TPA (phorbol 12-myristate acetate). Female Swiss Webster mice topically received TPA (10 μg/ear) on the right ear and vehicle on the left ear. The test compound (10 μg/ear) was applied to both ears. After five hours, the animals were sacrificed and an ear punch (4 mm) was taken from each ear. The difference in right and left ear punch weights for each animal was determined to assess activity. […] See Young, J. M. et al., J. Invest. Dermatol., 80 (1983), pp. 48-52.

[5] = tested on: epidermal DNA synthesis (proliferation of skin); test: Epidermal DNA Synthesis (in vivo DNA); design: species or system HRS/J hairless mice; conditions: Standard; topical, 24 hours, 3H-thymidine incorporation
Description: The influence of compounds on the proliferation of skin was assessed by determining inhibition or stimulation of DNA synthesis. HRS/J hairless mice received topical application of a compound or vehicle alone on the dorsal aspect. After 24 hours, ^3 H-thymidine (25 μCi) was administered by intraperitoneal injection. After an additional hour, animals were sacrificed and the dorsal skin was removed. The epidermal layer was peeled from the dermis by heat separation. Unincorporated ^3 H-thymidine was removed by washing successively with trichloroacetic acid and ethanol. Samples were centrifuged at 2,000 rpm and supernatants discarded. The epidermal sheets were then extracted with warm trichloroacetic acid and the supernatants analyzed for ^3 H-thymidine incorporation by total DNA by a standard colorimetric assay. […] See Lowe, N. J., et at., Arch. Dermatol., 117 (1981), pp. 394-8; and Burton, K., Biochem. J. 62 (1956), pp. 315-22.

[6] = tested on: cultured human epidermal keratinocytes; test: Cultured Human Keratinocyte DNA Synthesis (in vitro DNA); assay type: cell-based; conditions: Standard, 24 hours incubation, 3H-thymidine incorporation
Description: The effect of a compound on the proliferation of cultured human epidermal keratinocytes was measured. After incubation with a test compound for 24 hours, the cultures were pulse-labelled for three hours with 5 μCi of ^3 H-thymidine. The cultures were extracted for DNA successively with trichloroacetic acid and ethanol, and thereafter dissolved with NaOH. The radioactive incorporation of ^3 H-thymidine into DNA was determined.

[7] = 0.01 M, in vitro, pH 8.0, 37° C., read-out: PLA2, difference vs. control
[8] = pH 8, read-out: PLA2, difference vs. control

Chain of porcine pancreatic PLA2 (P00592 23-146): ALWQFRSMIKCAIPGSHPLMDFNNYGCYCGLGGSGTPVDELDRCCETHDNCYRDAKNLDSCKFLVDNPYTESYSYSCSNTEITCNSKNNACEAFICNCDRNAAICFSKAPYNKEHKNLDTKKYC

## O=[N+]([O-])c1cc[n+]([O-])cc1Oc1cccc2ccccc12 [3-(1-Naphthyloxy)-4-nitropyridine-N-oxide]
[1]
  AAEE, ear edema: -27%

## Nc1ccncc1Oc1cccc2ccccc12 [3-(1-Naphthyloxy)-4-pyridinamine]
[2]
  PIPE, difference in edema vs. control: -60%
[1]
  AAEE, ear edema: -66%
[3]; [7]
  inhibition at 10000 µM: 54%

## Nc1ccncc1Oc1ccc2ccccc2c1 [3-(2-Naphthyloxy)-4-pyridinamine]
[1]
  AAEE, ear edema: -59%

## O=[N+]([O-])c1cc[n+]([O-])cc1Oc1ccc(Cl)c2ccccc12 [3-(4-Chloro-1-naphthyloxy)-4-nitropyridine-N-oxide]
[4]
  TPAEE, ear edema: -41%

## Nc1ccncc1Oc1ccc(Cl)c2ccccc12 [3-(4-Chloro-1-naphthyloxy)-4-pyridinamine oxalate]
[3]; [8]
  inhibition at 10000 µM: 110%

## COc1ccc(Oc2cnccc2N)c2ccccc12 [3-(4-Methoxy-1-naphthyloxy)-4-pyridinamine]
[2]
  PIPE, difference in edema vs. control: -40%

## Nc1ccncc1Oc1cccc2c1CCCC2 [3-(5,6,7,8-Tetrahydro-1-naphthyloxy)-4-pyridinamine hydrochloride]
[3]; [8]
  inhibition at 10000 µM: 110%

## O=[N+]([O-])c1cc[n+]([O-])cc1Oc1ccc2cc(Br)ccc2c1 [3-(6-Bromo-2-naphthyloxy)-4-nitropyridine-N-oxide]
[4]
  TPAEE, ear edema: -43%

## O=[N+]([O-])c1cnccc1Oc1cccc2ccccc12 [4-(1-Naphthyloxy)-3-nitropyridine]
[4]
  TPAEE, ear edema: -72%

## Cl.Nc1cnccc1Oc1cccc2ccccc12 [4-(1-Naphthyloxy)-3-pyridinamine hydrochloride]
[4]
  TPAEE, ear edema: -40%

## O=[N+]([O-])c1cc[n+]([O-])cc1Oc1cccc2c1CCCC2 [4-Nitro-3-(5,6,7,8-tetrahydro-1-naphthyloxy)pyridine-N-oxide]
[3]; [7]
  inhibition at 10000 µM: 38%

## O=[N+]([O-])c1cc[n+]([O-])cc1Nc1cccc2ccccc12 [N-(1-Naphthyl)-4-nitro-3-pyridinamine-N-oxide]
[4]
  TPAEE, ear edema: -40%

## C[C@]12CCC(=O)C=C1CC[C@@H]1[C@@H]2[C@@H](O)C[C@@]2(C)[C@H]1CC[C@]2(O)C(=O)CO [hydrocortisone, reference compound]
[4]; Standard, TPA ear edema, mouse
  ED50: 47 μg/ear

## COc1ccc2c(c1)c(CC(=O)O)c(C)n2C(=O)c1ccc(Cl)cc1 [indomethacin]
[5]
  ED50: 1.75 mg/animal
[1]; Standard, arachidonic acid ear edema, mouse
  ED50: 1.5 mg/ear
[6]
  IC50: 38 µM

## CCN(CC)CCCC(C)Nc1c2ccc(Cl)cc2nc2ccc(OC)cc12 (stereo not shown) [quinacrine, reference compound]
[3]
  IC50: 350 µM
